Assay results from patent US6403647B1, “Pulsed administration of compositions for the treatment of blood disorders” (priority 1996, dated 2002).

System: γ-globin expression
Assay: γ-globin mRNA by RNase protection in erythroid cell cultures of normal individuals
Assay type: cell-based, human
Conditions: for x increase: over ChFCS
Procedure: Fetal globin production was determined in erythroid progenitor cells cultured in the presence or absence of test compositions. Erythroid cells were purified from blood obtained from a normal individual . […] Erythroid cell cultures were established with the following conditions: IMDM methylcellulose media, erythropoietin (3 U/ml), the human subjects' mononuclear cells, 30% charcoal-absorbed fetal calf serum, and the test compounds at varying micromolar concentrations.
Compounds were tested for their ability to induce expression of fetal globin expression in erythroid cell cultures established from the peripheral blood of normal individuals. Colonies were harvested and assayed for globin mRNA following 14 days of culture. Each compound was tested in duplicate cultures from 2-4 individual human subjects. Globin expression was quantitated by RNase protection assay for % gamma globin as a fraction of total non-alpha globin (% gamma/gamma+beta globin mRNA).

## CCCC(=O)NO [butyryl hydroxamate]
6 μM, group 1 (99-4, 99-5)
  x increase: 1.0 x
6 μM, group 1, subject 99-4
  γ/γ + β: 2.29%
6 μM, group 1, subject 99-5
  γ/γ + β: 3.40%
6 μM, group 1, subjects 99-4, 99-5
  γ/γ + β mean: 2.85%
10 μM, group 1 (99-4, 99-5)
  x increase: 1.3 x
10 μM, group 1, subject 99-4
  γ/γ + β: 3.44%
10 μM, group 1, subject 99-5
  γ/γ + β: 4.06%
10 μM, group 1, subjects 99-4, 99-5
  γ/γ + β mean: 3.75%
20 μM, group 1 (99-4, 99-5)
  x increase: 1.9 x
20 μM, group 1, subject 99-4
  γ/γ + β: 4.43%
20 μM, group 1, subject 99-5
  γ/γ + β: 6.06%
20 μM, group 1, subjects 99-4, 99-5
  γ/γ + β mean: 6.25%
20 μM, group 2 (99-6, 99-7)
  x increase: 1.0 x
20 μM, group 2, subject 99-6
  γ/γ + β: 8.65%
20 μM, group 2, subject 99-7
  γ/γ + β: 12.49%
20 μM, group 2, subjects 99-6, 99-7
  γ/γ + β mean: 10.57%
30 μM, group 1 (99-4, 99-5)
  x increase: 1.7 x
30 μM, group 1, subject 99-4
  γ/γ + β: 4.12%
30 μM, group 1, subject 99-5
  γ/γ + β: 5.35%
30 μM, group 1, subjects 99-4, 99-5
  γ/γ + β mean: 4.74%
40 μM, group 1 (99-4, 99-5)
  x increase: 2.8 x
40 μM, group 1, subject 99-5
  γ/γ + β: 7.72%
40 μM, group 1, subject 99-5 only
  γ/γ + β mean: 7.72%
40 μM, group 2 (99-6, 99-7)
  x increase: 1.5 x
40 μM, group 2, subject 99-6
  γ/γ + β: 14.81%
40 μM, group 2, subject 99-7
  γ/γ + β: 17.39%
40 μM, group 2, subjects 99-6, 99-7
  γ/γ + β mean: 16.10%
60 μM, group 2 (99-6, 99-7)
  x increase: 4.1 x
60 μM, group 2, subject 99-6
  γ/γ + β: 37.65%
60 μM, group 2, subject 99-7
  γ/γ + β: 51.04%
60 μM, group 2, subjects 99-6, 99-7
  γ/γ + β mean: 44.35%
80 μM, group 2 (99-6, 99-7)
  x increase: 4.7 x
80 μM, group 2, subject 99-6
  γ/γ + β: 44.98%
80 μM, group 2, subject 99-7
  γ/γ + β: 55.39%
80 μM, group 2, subjects 99-6, 99-7
  γ/γ + β mean: 50.19%
100 μM, group 2 (99-6, 99-7)
  x increase: 5.3 x
100 μM, group 2, subject 99-6
  γ/γ + β: 54.06%
100 μM, group 2, subject 99-7
  γ/γ + β: 60.90%
100 μM, group 2, subjects 99-6, 99-7
  γ/γ + β mean: 57.48%

## CCC(=O)NO [propionyl hydroxamate]
1 μM, 990709
  x increase: 1.1 x
1 μM, 990709, subject 99-4
  γ/γ + β: 1.39%
1 μM, 990709, subject 99-5
  γ/γ + β: 2.39%
1 μM, 990709, subjects 99-4, 99-5
  γ/γ + β mean: 1.89%
8 μM, 990709
  x increase: 0.9 x
8 μM, 990709, subject 99-4
  γ/γ + β: 1.19%
8 μM, 990709, subject 99-5
  γ/γ + β: 1.73%
8 μM, 990709, subjects 99-4, 99-5
  γ/γ + β mean: 1.46%
10 μM, 990709
  x increase: 1.5 x
10 μM, 990709, subject 99-4
  γ/γ + β: 1.86%
10 μM, 990709, subject 99-5
  γ/γ + β: 3.28%
10 μM, 990709, subjects 99-4, 99-5
  γ/γ + β mean: 2.57%
25 μM, 991208
  x increase: 1.5 x
25 μM, 991208, subject 00-1
  γ/γ + β: 12.17%
25 μM, 991208, subject 00-3
  γ/γ + β: 12.38%
25 μM, 991208, subjects 00-1, 00-3
  γ/γ + β mean: 12.27%
50 μM, 0601-0
  x increase: 2.5 x
50 μM, 0601-0, subject 00-3
  γ/γ + β: 9.57%
50 μM, 0601-0, subject 00-3 only
  γ/γ + β mean: 9.57%
50 μM, 990709
  x increase: 3.0 x
50 μM, 990709, subject 99-4
  γ/γ + β: 3.80%
50 μM, 990709, subject 99-5
  γ/γ + β: 6.40%
50 μM, 990709, subjects 99-4, 99-5
  γ/γ + β mean: 5.10%
50 μM, 991208
  x increase: 2.5 x
50 μM, 991208, subject 00-1
  γ/γ + β: 20.79%
50 μM, 991208, subject 00-3
  γ/γ + β: 21.30%
50 μM, 991208, subjects 00-1, 00-3
  γ/γ + β mean: 21.05%
100 μM, 0601-0
  x increase: 4.8 x
100 μM, 0601-0, subject 00-3
  γ/γ + β: 16.66%
100 μM, 0601-0, subject 00-3 only
  γ/γ + β mean: 16.66%
100 μM, 990709
  x increase: 4.6 x
100 μM, 990709, subject 99-4
  γ/γ + β: 7.78%
100 μM, 990709, subject 99-5
  γ/γ + β: 8.80%
100 μM, 990709, subjects 99-4, 99-5
  γ/γ + β mean: 7.72%
100 μM, 991208
  x increase: 4.3 x
100 μM, 991208, subject 00-1
  γ/γ + β: 32.74%
100 μM, 991208, subject 00-3
  γ/γ + β: 38.33%
100 μM, 991208, subjects 00-1, 00-3
  γ/γ + β mean: 35.54%
125 μM, 991208
  x increase: 4.7 x
125 μM, 991208, subject 00-1
  γ/γ + β: 37.83%
125 μM, 991208, subject 00-3
  γ/γ + β: 39.14%
125 μM, 991208, subjects 00-1, 00-3
  γ/γ + β mean: 38.49%
150 μM, 0601-0
  x increase: 6.3 x
150 μM, 0601-0, subject 00-3
  γ/γ + β: 24.40%
150 μM, 0601-0, subject 00-3 only
  γ/γ + β mean: 24.40%
150 μM, 991208
  x increase: 6.7 x
150 μM, 991208, subject 00-1
  γ/γ + β: 59.60%
150 μM, 991208, subject 00-3
  γ/γ + β: 51.56%
150 μM, 991208, subjects 00-1, 00-3
  γ/γ + β mean: 55.58%
5 to 150 micromolar
  fetal (gamma) globin expression, fold over control cultures: 1.5-6.7 fold
